Columns and labels:
Experiment in all cases: relative viability (nuclei count vs DMSO), 5 days (fraction); higher = more cells survive
Kobe2602 + Lapatinib = compound: C1=CC(=CC=C1NC(=S)NNC2=C(C=C(C=C2[N+](=O)[O-])C(F)(F)F)[N+](=O)[O-])F [Kobe2602] + CS(=O)(=O)CCNCc1ccc(-c2ccc3ncnc(Nc4ccc(OCc5cccc(F)c5)c(Cl)c4)c3c2)o1 [Lapatinib] (partner 2 µM)
Procedure, shortened: (§1)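 Nuclei were stained with Hoechst during a one-step fixation (final 0.05% Triton X-100, 1% formaldehyde, 1 ug/ml Hoechst) carried out 5 days after dosing, then counted on 4× images. The cells, lung cancer lines in 1536-well plates, had been dosed by pin tool the day after seeding with one drug alone or a fixed anchor-drug dose plus five library-drug doses (not always all listed) in √10 steps. Relative viability is the nuclei count in treated wells divided by that in vehicle wells, and each value is the median of duplicate plates.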

Kobe2602 + AZD7762 = compound: C1=CC(=CC=C1NC(=S)NNC2=C(C=C(C=C2[N+](=O)[O-])C(F)(F)F)[N+](=O)[O-])F [Kobe2602] + NC(=O)Nc1cc(-c2cccc(F)c2)sc1C(=O)N[C@H]1CCCNC1 [AZD7762] (partner 0.2 µM)
Procedure, shortened: as §1

Zosuquidar + Trametinib = compound: O[C@@H](COc1cccc2ncccc12)CN1CCN([C@@H]2c3ccccc3[C@@H]3[C@H](c4ccccc42)C3(F)F)CC1 [Zosuquidar] + CC(=O)Nc1cccc(-n2c(=O)n(C3CC3)c(=O)c3c(Nc4ccc(I)cc4F)n(C)c(=O)c(C)c32)c1 [Trametinib] (partner 0.02 µM)
Procedure, shortened: as §1

Zosuquidar + Olaparib = compound: O[C@@H](COc1cccc2ncccc12)CN1CCN([C@@H]2c3ccccc3[C@@H]3[C@H](c4ccccc42)C3(F)F)CC1 [Zosuquidar] + O=C(c1cc(Cc2n[nH]c(=O)c3ccccc23)ccc1F)N1CCN(C(=O)C2CC2)CC1 [Olaparib] (partner 8 µM)
Procedure, shortened: as §1

Cell Line	relative viability (Kobe2602 + Lapatinib; first compound 0.2 µM)	relative viability (Kobe2602 + Lapatinib; first compound 0.6325 µM)	relative viability (Kobe2602 + Lapatinib; first compound 6.325 µM)	relative viability (Kobe2602 + Lapatinib; first compound 20 µM)	relative viability (Kobe2602 + AZD7762; first compound 0.2 µM)	relative viability (Kobe2602 + AZD7762; first compound 0.6325 µM)	relative viability (Kobe2602 + AZD7762; first compound 2 µM)	relative viability (Kobe2602 + AZD7762; first compound 6.325 µM)	relative viability (Kobe2602 + AZD7762; first compound 20 µM)	relative viability (Zosuquidar + Trametinib; first compound 0.01 µM)	relative viability (Zosuquidar + Trametinib; first compound 0.3162 µM)	relative viability (Zosuquidar + Trametinib; first compound 1 µM)	relative viability (Zosuquidar + Olaparib; first compound 0.01 µM)	relative viability (Zosuquidar + Olaparib; first compound 0.3162 µM)	relative viability (Zosuquidar + Olaparib; first compound 1 µM)	relative viability (Kobe2602 + Lapatinib; first compound 2 µM)	relative viability (Zosuquidar + Trametinib; first compound 0.03162 µM)	relative viability (Zosuquidar + Trametinib; first compound 0.1 µM)	relative viability (Zosuquidar + Olaparib; first compound 0.03162 µM)	relative viability (Zosuquidar + Olaparib; first compound 0.1 µM)
HCC-78	1.02	0.903	0.418	1.18	0.7	0.675	0.748	0.588	0.774	0.799	1	0.759	0.939	0.862	0.846					
HCC-366	1.05	1.16	0.979	0.968	0.22	0.269	0.312	0.183	0.421	0.324	0.46	0.259	0.314	0.324	0.324	0.963	0.35	0.367	0.377	0.415
HCC-827	0.189	0.211	0.177	0.227	0.217	0.223	0.349	0.242	0.339	0.539	0.535	0.529	0.688	0.65	0.622	0.231	0.486	0.476	0.567	0.518
IA-LM	0.584	0.614	0.805	0.811									0.817	0.879	0.885	0.732			0.805	0.82
LCLC-103H					0.76	0.842	0.791	0.848	0.81	0.679	0.676	0.622	0.743	0.759	0.695		0.654	0.679	0.721	0.808
NCI-H441					1.1	1.11	1.13	1.13	1.06	0.417	0.557	0.437	0.708	0.482	0.525		0.464	0.345	0.61	0.738
NCI-H520	0.853	0.908	0.729	0.824						0.71	0.798	0.68	0.395	0.29	0.335	0.645	0.938	0.598	0.312	0.341
NCI-H522					1.02	1.14	0.855	0.954	0.859	0.81	0.723	0.719	0.724	0.766	0.668		0.706	0.843	0.623	0.684
NCI-H661	0.627	0.601	0.434	0.567						0.614	0.599	0.546	0.718	0.727	0.759	0.537	0.549	0.531	0.731	0.737
NCI-H1299	0.997	0.991	1.01	0.935									0.982	0.963	1.01	0.949			0.976	0.993
NCI-H1563	0.912	1.37	1.04	1.02												1.03				

— the supplement of paper PMC10307832
